{"source": "patent US4045298A", "about": "“Antibiotic XK-62-2 and process for production thereof” (priority 1972, dated 1977)", "format_in_all_cases": "cell-based", "key": {"[1]": {"tested_on": "Bacillus subtilis No. 10707", "assay": "Antibacterial spectra by agar dilution method", "details": "Table 5, read-out: Minimum inhibitory concentration", "source_text": "(§1) Antibacterial spectra of XK-62-2 by agar"}, "Escherichia coli KY 8310": {"tested_on": "Escherichia coli KY 8310", "assay": "Antibacterial spectra by agar dilution method", "details": "KY8310, resistant to chloramphenicol, streptomycin, kanamycin, gentamicin, kanendomycin, paromomycin, tetracycline and spectinomycin, read-out: Minimum inhibitory concentration", "source_text": "as §1"}, "[2]": {"tested_on": "Pseudomonas aeruginosa BMH No. 1", "assay": "Antibacterial spectra by agar dilution method", "details": "BMHNO.1, Table 5, read-out: Minimum inhibitory concentration", "source_text": "as §1"}, "[3]": {"tested_on": "Klebsiella pneumoniae ATCC 10031", "assay": "Antibacterial spectra by agar dilution method", "details": "ATCC10031, Table 5, read-out: Minimum inhibitory concentration", "source_text": "as §1"}, "[4]": {"tested_on": "Staphylococcus aureus KY 8953", "assay": "Antibacterial spectra by agar dilution method", "details": "KY8953, resistant to streptomycin, kanamycin, paromomycin, tetracycline, neomycin, kanendomycin and erythromycin, read-out: Minimum inhibitory concentration", "source_text": "as §1"}, "Escherichia coli ATCC 26": {"tested_on": "Escherichia coli ATCC 26", "assay": "Antibacterial spectra by agar dilution method", "details": "ATCC26, Table 5, read-out: Minimum inhibitory concentration", "source_text": "as §1"}, "[5]": {"tested_on": "Staphylococcus aureus KY 8942", "assay": "Antibacterial spectra by agar dilution method", "details": "KY8942, resistant to kanamycin, paromomycin and streptomycin, read-out: Minimum inhibitory concentration", "source_text": "as §1"}, "[6]": {"tested_on": "Staphylococcus aureus KY 8957", "assay": "Antibacterial spectra by agar dilution method", "details": "KY8957, resistant to chloramphenicol, streptomycin, kanendomycin, tetracycline and paromomycin, read-out: Minimum inhibitory concentration", "source_text": "as §1"}, "[7]": {"tested_on": "Salmonella typhosa ATCC 9992", "assay": "Antibacterial spectra by agar dilution method", "details": "Salmonella enterica, read-out: Minimum inhibitory concentration", "source_text": "as §1"}, "Escherichia coli KY 8315": {"tested_on": "Escherichia coli KY 8315", "assay": "Antibacterial spectra by agar dilution method", "details": "KY8315, resistant to streptomycin, kanamycin, paromomycin and neomycin, read-out: Minimum inhibitory concentration", "source_text": "as §1"}, "[8]": {"tested_on": "Staphylococcus aureus KY 8956", "assay": "Antibacterial spectra by agar dilution method", "details": "KY8956, resistant to streptomycin, paromomycin, tetracycline, erythromycin and oleandomycin, read-out: Minimum inhibitory concentration", "source_text": "as §1"}, "[9]": {"tested_on": "Bacillus cereus ATCC 9634", "assay": "Antibacterial spectra by agar dilution method", "details": "ATCC9634, Table 5, read-out: Minimum inhibitory concentration", "source_text": "as §1"}, "[10]": {"tested_on": "Streptococcus faecalis ATCC 10541", "assay": "Antibacterial spectra by agar dilution method", "details": "Enterococcus faecalis, ATCC10541, Table 5, read-out: Minimum inhibitory concentration", "source_text": "as §1"}, "[11]": {"tested_on": "Bacillus cereus var. myccides ATCC 9463", "assay": "Antibacterial spectra by agar dilution method", "details": "ATCC9463, Table 5, read-out: Minimum inhibitory concentration", "source_text": "as §1"}, "[12]": {"tested_on": "Staphylococcus aureus ATCC 6538P", "assay": "Antibacterial spectra by agar dilution method", "details": "ATCC6538P, Table 5, read-out: Minimum inhibitory concentration", "source_text": "as §1"}, "[13]": {"tested_on": "Shigella sonnei ATCC 9290", "assay": "Antibacterial spectra by agar dilution method", "details": "ATCC9290, Table 5, read-out: Minimum inhibitory concentration", "source_text": "as §1"}, "Escherichia coli KY 8302": {"tested_on": "Escherichia coli KY 8302", "assay": "Antibacterial spectra by agar dilution method", "details": "KY8302, resistant to chloramphenicol, streptomycin, kanamycin, paromomycin, tetracycline and spectinomycin, read-out: Minimum inhibitory concentration", "source_text": "as §1"}, "[14]": {"tested_on": "Pseudomonas aeruginosa KY 4276", "assay": "Minimum inhibitory concentration by agar dilution method", "details": "KY4276, clinical isolate, Table 7", "source_text": "(§2) Minimum inhibitory concentration\n(§3) (γ/ml : by agar dilution method)"}, "[15]": {"tested_on": "Pseudomonas aeruginosa KY 8515", "assay": "Minimum inhibitory concentration by agar dilution method", "details": "KY8515, clinical isolate, Table 7", "source_text": "as §2, §3"}, "[16]": {"tested_on": "Pseudomonas aeruginosa KY 8511", "assay": "Minimum inhibitory concentration by agar dilution method", "details": "KY8511, clinical isolate, Table 7", "source_text": "as §2, §3"}, "[17]": {"tested_on": "Pseudomonas aeruginosa KY 8516", "assay": "Minimum inhibitory concentration by agar dilution method", "source_text": "as §2, §3"}, "[18]": {"tested_on": "Pseudomonas aeruginosa KY 8514", "assay": "Minimum inhibitory concentration by agar dilution method", "details": "KY8514, clinical isolate, Table 7", "source_text": "as §2, §3"}, "[19]": {"tested_on": "Proteus mirabilis No. 825", "assay": "Minimum inhibitory concentration by agar dilution method", "details": "NO.825, agar dilution, Table 6, read-out: Minimum inhibitory concentration", "source_text": "(§4) The comparative in vitro activities of these antibiotics against various microorganisms of the genus Proteus are shown in the following Table 6.\nas §2, §3"}, "Proteus vulgaris KY 4296": {"tested_on": "Proteus vulgaris KY 4296", "assay": "Minimum inhibitory concentration by agar dilution method", "details": "KY4296, Table 6", "source_text": "as §4, §2, §3"}, "[20]": {"tested_on": "Proteus rettgeri Hambrook", "assay": "Minimum inhibitory concentration by agar dilution method", "details": "Providencia rettgeri; agar dilution; Table 6; read-out: Minimum inhibitory concentration", "source_text": "as §4, §2, §3"}, "Proteus morganii Jenkins": {"tested_on": "Proteus morganii Jenkins", "assay": "Minimum inhibitory concentration by agar dilution method", "details": "Morganella morganii; agar dilution; Table 6; read-out: Minimum inhibitory concentration", "source_text": "as §4, §2, §3"}, "Proteus rettgeri Booth": {"tested_on": "Proteus rettgeri Booth", "assay": "Minimum inhibitory concentration by agar dilution method", "details": "Providencia rettgeri; agar dilution; Table 6; read-out: Minimum inhibitory concentration", "source_text": "as §4, §2, §3"}, "[21]": {"tested_on": "Proteus mirabilis Finland 9", "assay": "Minimum inhibitory concentration by agar dilution method", "details": "FINLAND9, agar dilution, Table 6, read-out: Minimum inhibitory concentration", "source_text": "as §4, §2, §3"}, "Proteus vulgaris KY 4297": {"tested_on": "Proteus vulgaris KY 4297", "assay": "Minimum inhibitory concentration by agar dilution method", "details": "KY4297, Table 6", "source_text": "as §4, §2, §3"}, "[22]": {"tested_on": "Proteus vulgaris Abbott JJ", "assay": "Minimum inhibitory concentration by agar dilution method", "details": "agar dilution, Table 6, read-out: Minimum inhibitory concentration", "source_text": "as §4, §2, §3"}, "Proteus mirabilis No. 39": {"tested_on": "Proteus mirabilis No. 39", "assay": "Minimum inhibitory concentration by agar dilution method", "details": "NO.39, agar dilution, Table 6, read-out: Minimum inhibitory concentration", "source_text": "as §4, §2, §3"}, "[23]": {"tested_on": "Gram-positive and Gram-negative bacteria", "assay": "Antibacterial activity against Gram-positive and Gram-negative bacteria (summary)"}}, "data": [{"smiles": "CNC[C@@H]1CC[C@@H](N)[C@@H](O[C@H]2[C@H](O)[C@@H](O[C@H]3OC[C@](C)(O)[C@H](NC)[C@H]3O)[C@H](N)C[C@@H]2N)O1", "note": "[XK-62-2]", "values": [{"measurement": "MIC", "setting": "[1]", "value": "< 0.004", "unit": "µg/mL"}, {"measurement": "MIC", "setting": "Escherichia coli KY 8310", "value": 1.05, "unit": "µg/mL"}, {"measurement": "MIC", "setting": "[2]", "value": 0.53, "unit": "µg/mL"}, {"measurement": "MIC", "setting": "[3]", "value": 0.0082, "unit": "µg/mL"}, {"measurement": "MIC", "setting": "[4]", "value": 0.0041, "unit": "µg/mL"}, {"measurement": "MIC", "setting": "Escherichia coli ATCC 26", "value": 0.0082, "unit": "µg/mL"}, {"measurement": "MIC", "setting": "[5]", "value": 0.065, "unit": "µg/mL"}, {"measurement": "MIC", "setting": "[6]", "value": 0.0021, "unit": "µg/mL"}, {"measurement": "MIC", "setting": "[7]", "value": 0.018, "unit": "µg/mL"}, {"measurement": "MIC", "setting": "Escherichia coli KY 8315", "value": 0.016, "unit": "µg/mL"}, {"measurement": "MIC", "setting": "[8]", "value": "< 0.001", "unit": "µg/mL"}, {"measurement": "MIC", "setting": "[9]", "value": 0.016, "unit": "µg/mL"}, {"measurement": "MIC", "setting": "[10]", "value": 1.05, "unit": "µg/mL"}, {"measurement": "MIC", "setting": "[11]", "value": 0.0082, "unit": "µg/mL"}, {"measurement": "MIC", "setting": "[12]", "value": "< 0.0041", "unit": "µg/mL"}, {"measurement": "MIC", "setting": "[13]", "value": 0.07, "unit": "µg/mL"}, {"measurement": "MIC", "setting": "Escherichia coli KY 8302", "value": 0.033, "unit": "µg/mL"}, {"measurement": "MIC", "setting": "[14]", "value": 0.33, "unit": "µg/mL"}, {"measurement": "MIC", "setting": "[15]", "value": "> 42", "unit": "µg/mL"}, {"measurement": "MIC", "setting": "[16]", "value": "> 42", "unit": "µg/mL"}, {"measurement": "Susceptibility of strain", "setting": "[17]; KY 8516", "value": "sensitive"}, {"measurement": "MIC", "setting": "[17]; Pseudomonas aeruginosa, KY8516, agar dilution, clinical isolate, Table 7", "value": 0.33, "unit": "µg/mL"}, {"measurement": "Antibacterial activity relative to gentamicin complex or gentamicin C1a", "setting": "[17]; vs gentamicin complex or gentamicin C1a", "value": "much higher antibacterial activity"}, {"measurement": "MIC", "setting": "[18]", "value": 0.55, "unit": "µg/mL"}, {"measurement": "MIC", "setting": "[19]", "value": 0.021, "unit": "µg/mL"}, {"measurement": "MIC", "setting": "Proteus vulgaris KY 4296", "value": 0.021, "unit": "µg/mL"}, {"measurement": "MIC", "setting": "[20]", "value": 0.021, "unit": "µg/mL"}, {"measurement": "MIC", "setting": "Proteus morganii Jenkins", "value": 0.04, "unit": "µg/mL"}, {"measurement": "MIC", "setting": "Proteus rettgeri Booth", "value": 0.021, "unit": "µg/mL"}, {"measurement": "MIC", "setting": "[21]", "value": 0.04, "unit": "µg/mL"}, {"measurement": "MIC", "setting": "Proteus vulgaris KY 4297", "value": 0.021, "unit": "µg/mL"}, {"measurement": "MIC", "setting": "[22]", "value": 0.021, "unit": "µg/mL"}, {"measurement": "MIC", "setting": "Proteus mirabilis No. 39", "value": 0.021, "unit": "µg/mL"}, {"measurement": "Antibacterial activity", "setting": "[23]; both in vitro and in vivo, broad range of Gram-positive and Gram-negative bacteria", "value": "very strong antibacterial activity"}, {"measurement": "In vitro activity relative to gentamicin", "setting": "[23]; in vitro, vs gentamicin", "value": "comparable"}, {"measurement": "In vitro activity relative to streptomycin and kanamycin", "setting": "[23]; in vitro, vs streptomycin and kanamycin", "value": "far superior"}]}]}
